Bridge positions count the residues as written; N and C are the ends. Square brackets hold non-standard residues; d marks the D form. Peptide text beside a SMILES is read from it. d(aThr) = C[C@@H](O)[C@@H](N)C(=O)O; 12Ado = NCCCCCCCCCCCC(=O)O
Tests used:
[1] = system: S. aureus ATCC 33591 (MRSA); format: cell-based, Staphylococcus aureus
[2] = system: human liver embryonic cell line WRL 68; format: cell-based
HepG2 cancer cell line = format: cell-based, human
[3] = system: S. aureus ATCC 700699 (Mu50, VRSA); format: cell-based, Staphylococcus aureus
[4] = system: variety of fungi, including Candida albicans and Cryptococcus neoformans, and Gram-positive bacteria such as S. aureus; conditions: range over fungi and Gram-positive bacteria; cited from earlier work

Row | Compound | MIC [1] | MIC [3] | cytotoxicity [2] | cytotoxicity (HepG2 cancer cell line) | MICs [4]
1 | CC(=O)N[C@@H]1C(=O)N[C@H](C(C)C)C(=O)N[C@@H](C(C)C)C(=O)N[C@H]([C@H](C)O)C(=O)N[C@H](CC(N)=O)C(=O)N[C@H](C)C(=O)O[C@@H]1C [compound 1] (Ac-T[dV]V[dT][dN][dA]; ester 1-C) | >128 mg/L | >128 mg/L | did not show appreciable cytotoxicity | did not show appreciable cytotoxicity | –
2 | CC(=O)N[C@@H]1C(=O)N[C@H](C(C)C)C(=O)N[C@@H](C(C)C)C(=O)N[C@H]([C@@H](C)O)C(=O)N[C@H](CC(N)=O)C(=O)N[C@H](C)C(=O)O[C@@H]1C [compound 2] (Ac-T[dV]V[d(aThr)][dN][dA]; ester 1-C) | >128 mg/L | >128 mg/L | – | – | –
3 | fusaricidin A | – | – | – | – | 0.78 to 3.12 µg/mL

More lines, main results first:

Row | MIC [1] | MIC [3] | Compound | cytotoxicity [2] | cytotoxicity (HepG2 cancer cell line) | MICs [4]
4 | >128 mg/L | >128 mg/L | CC(C)[C@@H]1NC(=O)[C@@H](C(C)C)NC(=O)[C@@H](NC(=O)CCCCCCCCCCCN)[C@@H](C)OC(=O)[C@@H](C)NC(=O)[C@@H](CC(N)=O)NC(=O)[C@@H]([C@H](C)O)NC1=O [compound 3] (H-[12Ado]T[dV]V[dT][dN][dA]; ester 2-C) | – | – | –
5 | >128 mg/L | >128 mg/L | CC(C)[C@@H]1NC(=O)[C@@H](C(C)C)NC(=O)[C@@H](NC(=O)CCCCCCCCCCCN)[C@@H](C)OC(=O)[C@@H](C)NC(=O)[C@@H](CC(N)=O)NC(=O)[C@@H]([C@@H](C)O)NC1=O [compound 4] (H-[12Ado]T[dV]V[d(aThr)][dN][dA]; ester 2-C) | – | – | –
